Values joined by “and” are separate entries in the source; they are usually repeats but may differ in a detail not shown here. Identical values can stand only once.
Key:
[1] = system: lipopolysaccharide (LPS)-induced model of uveitis in a rat eye; assay: Rat uveitis model; format: in vivo, Brown Norway rats; settings: for Retinal Thickness (µm): single eyes, Fig 7e
Experimental: Sample preparation. Dex-TEG-Dex was weighed on a stainless steel coupon and transferred to a heat press (Carver Laboratory Press). Once melted, a polytetrafluoroethylene (PTFE) template was placed on the melt and pressure was applied for 2 min. Samples were cooled to room temperature prior to removal from the PTFE mold, yielding implants with 23 G diameter × 1 mm length. Samples were loaded into appropriate-sized needles (23 G), packaged, and sterilized by ethylene oxide gas.
LPS stimulation and implantation. […] Animals were first sedated in an isoflurane gas chamber before being anaesthetized through an intraperitoneal injection of ketamine (100 mg/kg) and xylazine (10 mg/kg) solution. One day prior to LPS stimulation, eyes were prepared with topical anesthetic eye drops (Alcaine, 0.5%, Alcon) and pupils were dilated with application of one drop of 1% tropicamide (Alcon) on each cornea prior to anesthesia. Implants were then injected with a 23 G needle into the vitreous humor of rat eyes. Negative control animals received a sham injection, while the positive control group received a sham injection as well as Dex eye drops 4× daily (Maxidex 0.1%, Alcon). One day after test article administration, each rat received an intravitreal injection of 100 ng of LPS (LPS Escherichia coli 0111:B4, Sigma Aldrich) to induce inflammation. The inflammatory state of the eyes was monitored by slit-lamp microscopy (Phoenix Anterior Segment Slit Lamp), fundus microscopy (Phoenix Micron IV), and optical coherence tomography (Phoenix image-guided OCT) for 72 h post-LPS injection. Slit-lamp was used to image the anterior structures of the rat eye and to assess changes in vasculature, aqueous humor haze, pupil responsiveness, and presence of cellular infiltrates. Anterior segment OCT (ASOCT) was used to assess signs of inflammation in the anterior chamber through anterior chamber flare, pupillary fibrin occlusions, and presence of inflammatory cells. The ASOCT was used only for qualitative evaluation of the inflammatory state. Posterior segment OCT (PSOCT) was used to capture six (6) images around the optic disc (OD) of each eye and the images were used for retinal thickness, inflammatory cell count, and vitreal haze evaluation. Retinal thickness was measured using ImageJ (v.1.8.0) from four (4) OCT images close to the optic disk. Inflammatory cells were manually quantified from the same OCT images used for retinal thickness measurements.

[2] = 3-point bend test of extruded rods; format: physicochemical; settings: Fig 2c
Text: Extruded rods of ~300 µm diameter and 8 mm length (6 mm span on testing apparatus) were subjected to a 3-point bend test using an Instron uniaxial servo-hydraulic testing machine (Instron Model 8501) with a 2.5 N load cell and cross-head speed of 0.8 mm/min.

[3] = Tolerability study of intravitreal implants (IOP, IR fundus imaging, histopathology); format: in vivo
Experimental: Tolerability study. The tolerability study was conducted at Absorption Systems California (San Diego, CA, USA) under the same animal care and ethics guidelines and approval systems as indicated above in the Pharmacodynamics section. […] Animals were anesthetized with intramuscular ketamine hydrochloride (30–32 mg/kg) and xylazine (5–10 mg/kg), with glycopyrrolate (0.01–0.02 mg/kg, intramuscular) administered concurrently. Eyes were prepped with 1–2 drops of topical proparacaine hydrochloride (0.5%). Prior to implant or sham treatment, eyes received one drop of 10% phenylephrine and 1% tropicamide. 5% betadine solution was used to clean the eye and surrounding area. Group 1 underwent a sham injection procedure, while Group 2 and Group 3 were administered 2× and 3× 30 G × 6 mm Dex-TEG-Dex implants via intravitreal injection, respectively. […] IOP measurements were performed on both eyes at baseline and designated timepoints up to 52 weeks thereafter using a pneumotonometer. Eyes received 1–2 drops of topical proparacaine hydrochloride (0.5%) prior to IOP measurements, and measurements were taken at approximately the same time of day (±2 h). Wide angle infrared (IR) imaging was performed at baseline and at designated timepoints using a Heidelberg Spectralis® imaging platform. Prior to imaging, eyes were dilated with 1 drop each of 10% phenylephrine and 1% tropicamide. […] Animals were euthanized via pentobarbital overdose (150 mg/kg, intravenous).
Histopathology. […] Eyes were then transferred to 70% ethanol. Eyes were embedded in paraffin and sectioned using a microtome. Five sections were generated from each eye and stained with hematoxylin and eosin (H&E). All stained sections were microscopically evaluated by an ACVP veterinary pathologist.

[4] = rabbit, in vivo
Experimental: Analysis of samples was conducted using a SCIEX API 5000 mass spectrometer (Applied Biosystems/MDS Sciex), Shimadzu LC-20ADXR HPLC pumps, Shimadzu SCL-10A controller, and HTS-PAL autoinjector (CTC Analytics). Chromatography was performed using a Waters X-Bridge C-18 (3.5 µm; 100 × 2.1 mm) column equipped with a Phenomenex KrudKatcher ULTRA HPLC In-Line Filter (Part AF0-8497). The column was held at a temperature of 40 °C, while the autosampler compartment was maintained at 4 °C. Mobile phases consisted of: (A) 95:5 H2O:MeOH with 2 mM Ammonium Acetate (NH4OAc) and (B) 85:10:5 MeOH:H2O:MeCN with 2 mM NH4OAc. A gradient elution profile was employed, following the trend of: (0 min 30% B), (0.50 min 30% B), (2.50 min 65% B), (2.51 min 100% B), (4.50 min 100% B), (4.51 min 30% B), (6.50 min 30% B). Flow was constant at 0.6 mL min^-1 with an injection volume of 10 µL. For MS parameters, the system was operated in positive ion mode with a TurboIonSpray probe monitoring transitions (±0.2 AMU) of m/z 393.2 → 373.2 for Dex and 397.3 → 377.2 for the Dex-d4 deuterated internal standard. Analyst Version 1.4.2 (Applied Biosystems-MDS Sciex) was used for instrument control, data acquisition, and peak integrations, while calculations including peak area ratios, standard curve regressions, sample concentration values, and descriptive statistics were performed with the assistance of the ALIS2004 validated LIMS.
Dex and internal standard (Dex-d4) were extracted from vitreous humor on ice using protein precipitation. Samples were initially centrifuged at approximately 1500 rcf for 5 min to remove any interfering particulates. Stepwise, the protocol for extraction from vitreous humor was to (1) pipette 50 µL of vitreous humor into an extraction tube; (2) add 13 µL H2O and vortex to mix; (3) add 25 µL internal standard spiking solution (100 ng/mL Dex-d4 in a 1:1 solvent of MeOH:H2O); (4) add 25 µL of make-up reagent (1:1 mixture of MeOH:H2O); (5) vortex mix for 5-10 s at a speed setting of 4 or 5; (6) centrifuge at ~60 rcf for 2 min; (7) add 300 µL of 9:1 MeOH:5 mM NH4OAc at pH 7 to precipitate proteins; (8) cap and vortex mix at full speed for 2 min; (9) Centrifuge at approximately 2700 rcf for 5 min; (10) transfer 300 µL of supernatant to a separate tube; (11) vortex the collected supernatant for 30 s at a low to moderate speed; (12) centrifuge at ~1500 rcf for 5 min; (13) store prepared extract at 4 °C until analysis by LC-MS/MS.
Pharmacokinetics. […] Animals were anesthetized with ketamine (up to ~50 mg/kg) and xylazine (up to ~10 mg/kg). Eyes were surgically prepared before intravitreal procedures with 5% betadine and topical anesthetic eye drops (proparacaine hydrochloride, 0.5%). Prior to test article administration, pupils were dilated with topical application of one drop each of 10% phenylephrine and 1% tropicamide on each cornea.
Implants (30 G × 6 mm Dex-TEG-Dex extruded rods, Ozurdex®) were injected (30 G needle for Dex-TEG-Dex, 22 G needle for Ozurdex®) intravitreally into the eyes of New Zealand White rabbits (female, 1.5–2.5 kg) with terminal timepoints of 1 and 2 weeks and 1, 2, 3, 6, 9, 12, and 14 months. Ocular tissues and plasma were collected at each timepoint and analyzed for Dex by LC/MS/MS. Whole globe eyes were collected into centrifuge tubes and remained frozen for a minimum of 24 h before dissection and tissue collection. During dissection, vitreous humor containing any remaining test article was collected frozen into pre-weighed centrifuge tubes and stored at −80 °C until further processing.

C[C@@H]1C[C@H]2[C@@H]3CCC4=CC(=O)C=C[C@]4(C)[C@@]3(F)[C@@H](O)C[C@]2(C)[C@@]1(O)C(=O)COC(=O)OCCOCCOCCOC(=O)OCC(=O)[C@@]1(O)[C@H](C)C[C@H]2[C@@H]3CCC4=CC(=O)C=C[C@]4(C)[C@@]3(F)[C@@H](O)C[C@@]21C [Dex-TEG-Dex]
Retinal Thickness (µm) ([1]; 0h): 298 µm and 279 µm and 272 µm and 275 µm and 314 µm and 300 µm and 293 µm and 294 µm
Retinal Thickness (µm) ([1]; 24h): 300 µm and 269 µm and 279 µm and 286 µm and 296 µm and 289 µm and 292 µm
Retinal Thickness (µm) ([1]; 48h): 279 µm and 296 µm and 265 µm and 264 µm and 275 µm and 261 µm and 294 µm and 266 µm
Retinal Thickness (µm) ([1]; 72h): 245 µm and 261 µm and 250 µm and 249 µm and 236 µm and 241 µm and 247 µm and 259 µm
Retinal Thickness (µm) ([1]; -24h): 244 µm and 248 µm and 257 µm and 251 µm and 238 µm and 240 µm
effect on LPS-induced inflammatory response ([1]; intravitreal 23 G implant, 24 h before LPS, cellular infiltrate and retinal thickness by OCT, 72 h): acutely suppress the LPS-induced inflammatory response
Flexural Modulus [2]: 2.45 GPa and 2.68 GPa and 3.21 GPa and 3.29 GPa and 3.01 GPa
IR fundus images ([3]; two and three implant eyes, baseline and 3, 6, 9, 12 months): unremarkable
tolerability ([3]; two or three 30 G × 6 mm implants intravitreally, 12 months): well tolerated
histopathology findings ([3]; two or three 30 G × 6 mm implants, H&E): no microscopic or macroscopic findings
time at which free Dex fell below limits of detection ([4]; female, New Zealand White): 14 months
levels of dexamethasone in the aqueous humor [4]: below the limit of quantification for most samples
